pIC50: −log10 of the molar value.
Experiments:
Type in all cases: cell-based
human TLR7 = target: T1, human TLR7 (Homo sapiens, UniProt Q9NYK1); test: TLR7 inhibition reporter assay (HEK-Blue SEAP); details: HEK-Blue cells overexpressing human TLR7, gardiquimod 7.5 μM, 22 hour incubation
T1 construct: host or cells: HEK-Blue cells
T1 sequence (Q9NYK1 27-1049): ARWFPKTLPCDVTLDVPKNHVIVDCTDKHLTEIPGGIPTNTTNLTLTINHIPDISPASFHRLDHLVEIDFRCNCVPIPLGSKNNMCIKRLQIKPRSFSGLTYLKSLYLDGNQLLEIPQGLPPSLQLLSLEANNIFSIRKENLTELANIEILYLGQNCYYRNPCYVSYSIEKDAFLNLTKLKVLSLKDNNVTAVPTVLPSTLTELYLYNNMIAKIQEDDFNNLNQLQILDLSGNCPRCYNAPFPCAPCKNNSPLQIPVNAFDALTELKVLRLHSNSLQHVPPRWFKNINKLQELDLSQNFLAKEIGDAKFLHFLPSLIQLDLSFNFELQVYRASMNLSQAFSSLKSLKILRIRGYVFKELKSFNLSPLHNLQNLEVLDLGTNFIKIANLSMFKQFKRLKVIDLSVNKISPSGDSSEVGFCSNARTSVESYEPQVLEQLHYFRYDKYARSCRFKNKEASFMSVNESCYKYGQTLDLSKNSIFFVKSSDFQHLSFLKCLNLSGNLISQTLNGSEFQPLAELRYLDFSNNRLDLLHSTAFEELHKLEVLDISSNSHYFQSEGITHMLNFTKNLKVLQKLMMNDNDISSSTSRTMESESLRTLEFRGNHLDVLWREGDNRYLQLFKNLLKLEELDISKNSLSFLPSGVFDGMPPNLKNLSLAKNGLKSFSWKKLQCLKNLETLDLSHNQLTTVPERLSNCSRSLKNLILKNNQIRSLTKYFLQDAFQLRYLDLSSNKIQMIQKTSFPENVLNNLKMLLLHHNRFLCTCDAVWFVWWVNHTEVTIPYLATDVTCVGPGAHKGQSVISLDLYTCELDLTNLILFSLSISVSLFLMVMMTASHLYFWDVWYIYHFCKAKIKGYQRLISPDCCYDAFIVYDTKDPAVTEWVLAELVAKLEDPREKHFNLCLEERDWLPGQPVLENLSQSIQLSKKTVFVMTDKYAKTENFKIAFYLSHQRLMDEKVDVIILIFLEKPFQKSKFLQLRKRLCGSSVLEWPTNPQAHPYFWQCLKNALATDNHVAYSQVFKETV
Protocol: (§1) TLR7/8/9 Inhibition Reporter Assays
Briefly, cells are seeded into Greiner 384 well plates (15000 cells per well for TLR7, 20,000 for TLR8 and 25,000 for TLR9) and then treated with test compounds in DMSO to yield a final dose response concentration range of 0.05 nM-50 μM. […] After a 22 hour incubation at 37° C., 5% CO2, SEAP levels are determined with the addition of HEK-Blue™ Detection reagent (Invivogen), a cell culture medium that allows for detection of SEAP, according to manufacturer's specifications. The percent inhibition is determined as the % reduction in the HEK-Blue signal present in wells treated with agonist plus DMSO alone compared to wells treated with a known inhibitor.

human TLR8 = target: T2, human TLR8 (Homo sapiens, UniProt Q9NR97); test: TLR8 inhibition reporter assay (HEK-Blue SEAP); details: HEK-Blue cells overexpressing human TLR8, R848 15.9 μM, 22 hour incubation
T2 construct: host or cells: HEK-Blue cells
T2 sequence (Q9NR97 27-1041): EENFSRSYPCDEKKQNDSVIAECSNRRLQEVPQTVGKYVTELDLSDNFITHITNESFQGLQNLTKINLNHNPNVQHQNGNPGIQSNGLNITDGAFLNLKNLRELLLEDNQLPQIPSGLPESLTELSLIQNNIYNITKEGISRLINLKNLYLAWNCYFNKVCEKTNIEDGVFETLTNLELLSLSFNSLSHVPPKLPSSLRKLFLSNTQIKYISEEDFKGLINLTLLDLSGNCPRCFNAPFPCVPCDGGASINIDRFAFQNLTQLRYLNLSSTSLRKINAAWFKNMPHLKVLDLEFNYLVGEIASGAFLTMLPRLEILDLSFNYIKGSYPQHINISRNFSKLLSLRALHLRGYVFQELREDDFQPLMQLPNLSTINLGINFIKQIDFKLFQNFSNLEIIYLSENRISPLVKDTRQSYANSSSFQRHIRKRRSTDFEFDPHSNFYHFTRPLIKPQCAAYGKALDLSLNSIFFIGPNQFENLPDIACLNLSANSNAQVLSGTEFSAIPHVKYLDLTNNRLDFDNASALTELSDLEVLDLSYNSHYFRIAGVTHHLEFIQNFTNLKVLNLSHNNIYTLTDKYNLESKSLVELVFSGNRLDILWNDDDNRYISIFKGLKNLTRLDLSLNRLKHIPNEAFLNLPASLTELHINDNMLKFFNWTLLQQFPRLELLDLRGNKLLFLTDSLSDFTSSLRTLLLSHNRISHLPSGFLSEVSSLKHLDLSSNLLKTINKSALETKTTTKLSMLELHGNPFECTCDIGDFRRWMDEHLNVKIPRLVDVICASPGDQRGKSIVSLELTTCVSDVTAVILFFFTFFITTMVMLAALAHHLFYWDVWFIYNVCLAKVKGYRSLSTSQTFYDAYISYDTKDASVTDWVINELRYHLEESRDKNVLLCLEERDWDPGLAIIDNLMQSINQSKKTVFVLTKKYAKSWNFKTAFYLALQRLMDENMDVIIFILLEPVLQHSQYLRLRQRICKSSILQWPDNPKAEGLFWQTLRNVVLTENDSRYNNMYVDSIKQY
Protocol: as §1
(§2) HEK-Blue™-cells (Invivogen) overexpressing human TLR7, TLR8 or TLR9 receptors were used for screening inhibitors of these receptors using an inducible SEAP (secreted embryonic alkaline phosphatase) reporter gene under the control of the IFN-β minimal promoter fused to five NF-κB and AP-1-binding sites. Briefly, cells are seeded into Greiner 384 well plates (15000 cells per well for TLR7, 20,000 for TLR8 and 25,000 for TLR9) and then treated with test compounds in DMSO to yield a final dose response concentration range of 0.05 nM-50 μM. After a 30 minute compound pre-treatment at room temperature, the cells are then stimulated with a TLR7 ligand (gardiquimod at a final concentration of 7.5 μM), TLR8 ligand (R848 at a final concentration of 15.9 μM) or TLR9 ligand (ODN2006 at a final concentration of 5 nM) to activate NF-κB and AP-1 which induce the production of SEAP. After a 22 hour incubation at 37° C., 5% CO2, SEAP levels are determined with the addition of HEK-Blue™ Detection reagent (Invivogen), a cell culture medium that allows for detection of SEAP, according to manufacturer's specifications. The percent inhibition is determined as the % reduction in the HEK-Blue signal present in wells treated with agonist plus DMSO alone compared to wells treated with a known inhibitor.

human TLR9 = target: T3, human TLR9 (Homo sapiens, UniProt Q9NR96); test: TLR9 inhibition reporter assay (HEK-Blue SEAP); details: HEK-Blue cells overexpressing human TLR9, ODN2006 5 nM, 22 hour incubation
T3 construct: host or cells: HEK-Blue cells
T3 sequence (Q9NR96 26-1032): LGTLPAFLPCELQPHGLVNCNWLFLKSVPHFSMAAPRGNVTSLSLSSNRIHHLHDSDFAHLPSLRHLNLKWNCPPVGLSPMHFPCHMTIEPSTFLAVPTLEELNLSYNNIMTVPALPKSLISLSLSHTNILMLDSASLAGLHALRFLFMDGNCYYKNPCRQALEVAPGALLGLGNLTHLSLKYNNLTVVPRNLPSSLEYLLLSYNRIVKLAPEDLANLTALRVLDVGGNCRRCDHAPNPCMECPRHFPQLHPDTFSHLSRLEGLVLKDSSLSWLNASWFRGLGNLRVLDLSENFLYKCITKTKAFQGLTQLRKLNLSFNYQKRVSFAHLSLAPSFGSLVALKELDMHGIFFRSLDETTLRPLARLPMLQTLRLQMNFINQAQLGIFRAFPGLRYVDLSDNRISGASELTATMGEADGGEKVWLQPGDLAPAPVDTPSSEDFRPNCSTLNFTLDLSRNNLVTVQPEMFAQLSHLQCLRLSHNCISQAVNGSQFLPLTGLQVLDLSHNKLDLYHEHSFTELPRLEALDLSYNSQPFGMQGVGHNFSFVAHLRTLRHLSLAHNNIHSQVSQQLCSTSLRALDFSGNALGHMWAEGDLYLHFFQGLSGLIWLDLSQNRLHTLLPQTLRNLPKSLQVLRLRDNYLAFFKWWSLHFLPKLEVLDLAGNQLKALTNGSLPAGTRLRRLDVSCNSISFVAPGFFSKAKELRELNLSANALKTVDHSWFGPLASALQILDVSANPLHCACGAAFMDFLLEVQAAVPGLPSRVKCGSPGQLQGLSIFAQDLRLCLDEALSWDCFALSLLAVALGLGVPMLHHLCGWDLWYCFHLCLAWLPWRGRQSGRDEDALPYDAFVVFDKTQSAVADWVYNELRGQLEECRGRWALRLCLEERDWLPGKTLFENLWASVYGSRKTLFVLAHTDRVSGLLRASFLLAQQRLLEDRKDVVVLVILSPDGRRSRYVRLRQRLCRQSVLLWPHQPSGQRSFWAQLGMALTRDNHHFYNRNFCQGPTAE
Protocol: as §1, §2

Structure (SMILES)	pIC50 (human TLR7)	pIC50 (human TLR8)	pIC50 (human TLR9)
COc1cc(-c2cc3[nH]c(=O)n(C4CCC(N5CC6(C5)CS(=O)(=O)C6)CC4)c3cc2C(C)C)cn2ncnc12 (single isomer, unassigned) [Example 244, 1-(4-(2,2-dioxido-2-thia-6-azaspiro[3.3]heptan-6-yl)cyclohexyl)-6-isopropyl-5-(8-methoxy-[1,2,4]triazolo[1,5-a]pyridin-6-yl)-1,3-dihydro-2H-benzo[d]imidazol-2-one]	8.08	8.45	
CCc1cc2c(cc1-c1cc(OC)c3ncnn3c1)[nH]c(=O)n2[C@@H]1CCCN(C(C)CC)C1 (stereo partly drawn) [Example 176, 1-((3R)-1-(sec-butyl)piperidin-3-yl)-6-ethyl-5-(8-methoxy-[1,2,4]triazolo[1,5-a]pyridin-6-yl)-1,3-dihydro-2H-benzo[d]imidazol-2-one]	8.47	8.10	
CCc1cc2c(cc1-c1cc(OC)c3ncnn3c1)[nH]c(=O)n2[C@@H]1CCCN(C2CCCOC2)C1 (stereo partly drawn) [Example 214, 6-ethyl-5-(8-methoxy-[1,2,4]triazolo[1,5-a]pyridin-6-yl)-1-((3R)-1-(tetrahydro-2H-pyran-3-yl)piperidin-3-yl)-1,3-dihydro-2H-benzo[d]imidazol-2-one]	7.77	7.71	

Further lines, results first:

pIC50 (human TLR7)	pIC50 (human TLR8)	pIC50 (human TLR9)	Structure (SMILES)
	7.78	5.30	Cc1cc2c(cc1-c1cc(C)c3ncnn3c1)[nH]c(=O)n2[C@@H]1CCCN(CCC(C)C)C1 [Example 38, (R)-1-(1-isopentylpiperidin-3-yl)-6-methyl-5-(8-methyl-[1,2,4]triazolo[1,5-a]pyridin-6-yl)-1,3-dihydro-2H-benzo[d]imidazol-2-one]
8.26	7.61		Cc1c(-c2cc3[nH]c(=O)n([C@@H]4CCCN(CC(C)(C)C)C4)c3cc2C(C)C)cn2ncnc2c1C [Example 152, (R)-5-(7,8-dimethyl-[1,2,4]triazolo[1,5-a]pyridin-6-yl)-6-isopropyl-1-(1-neopentylpiperidin-3-yl)-1,3-dihydro-2H-benzo[d]imidazol-2-one]
